Test [1] relates to B16-mhgp100 tumors. Kind of test: Anti-tumor efficacy in B16 melanoma model, citrate vs potassium hydroxycitrate. The test is classed as in vivo, mice. To be noted: T cells cultured in potassium hydroxycitrate or citrate; FIGS. 17A-17C.
For test [2], the system named is T cells. The test can be described thus: Cytoplasmic citrate and AcCoA quantification in treated T cells. It is filed as cell-based, mouse. Here is the method: T cells (n=3) cultured in control or potassium hydroxycitrate conditions were collected and washed in PBS to perform the total and cytoplasmic AcCoA and citrate levels. Samples were homogenized in 1% TRITON X-100 nonionic surfactant, 20 mM Tris-HCl, pH=7.4, 150 mM NaCl on ice for 10 min (Sigma Acetyl-Coenzyme A Assay Kit—MAK039) or citrate buffer (Sigma Citrate Assay Kit—MAK057) (Sigma, St. Louis, MO) as per the directions provided in the kit. For total AcCoA quantification, pelleted cells were extracted using 80% methanol or 5% sulfo-salicylic acid with 50 μM DTT. After cell lysis, samples were deproteinized with a 10 kDa molecular weight cut-off (MWCO) spin filter prior to the assay. AcCoA concentrations were interpolated with AcCoA standards using fluorometric assay (Ex=535, Em=587) or by mass spectrometry. Citrate concentrations were interpolated with citrate standards using colorimetric assay (570 nm). […]
Cytoplasmic citrate and cytoplasmic AcCoA were quantified following treatment of cells with potassium hydroxycitrate or negative control. […]
Cytoplasmic AcCoA was quantified following treatment with a combination of potassium hydroxycitrate and 5 mM acetate, potassium hydroxycitrate only, or control (neither potassium hydroxycitrate nor acetate) (FIG. 14).

The subject of test [3] is IFN-γ locus in CD8+ Pmel-1 cells. The test can be described thus: ChIP-PCR of H3K9Ac deposition at the IFN-γ locus. It is filed as cell-based, mouse. To be noted: vs negative control; FIG. 2C. Here is the method:
Chromatin Immunoprecipitations were performed with validated antibodies from previous literatures (Gray et al., Immunity, 46(4): 596-608 (2017); Peng et al., Science, 354(6311): 481-484 (2016)) and protocols were followed according to manufacturing instructions provided by the CHIP-IT express shearing kit (Active Motif, Carlsbad, CA). Briefly, CD8+ Pmel-1 cells were fixed with formaldehyde for 7 minutes on a rocking platform and quenched with 1× of Glycine. Cells were pelleted with phenylmethylsulfonyl fluoride (PMSF) and protein inhibition cocktail and stored at −80 prior to cell lysis. Thawed cells were suspended in ice cold lysis buffer to obtain nuclei material. Nuclei material was sheared by incubating with enzymatic cocktail for 15 minutes at 37° C. Sheared chromatin with a total of 7.5 μg/sample was incubated with protein G magnetic beads with anti-H3K27Ac (Abcam Cat #ab4729), H3k9Ac (Abcam Cat #ab4441) (Abcam, Cambridge, UK) and anti IgG at 4° C. overnight. Magnetic beads were washed with buffers to remove unbound immune complexes and eluted with 150 μl of elution buffer. […] Concentration of the ChIP DNA was measured with high sensitive DNA assay protocol on tape station to normalize the DNA. Samples were sequenced on illumina Next seq system (Illumina, San Diego, CA) with 75 bp reads in single end mode with approximately 40M reads per sample. […]

Test [4] deals with T cells. The test can be described thus: Autophagy flux, GFP-mCherry-LC3b reporter, flow cytometry. The test is classed as cell-based, mouse. In general terms: In flow cytometry, cells or beads pass a laser one at a time.
Test [5] deals with CD8+ Pmel-1 T cells. Kind of test: Flow cytometry of CD62L/CD44 and IFN-γ production. It is filed as cell-based, mouse. To be noted: 5 mM. Here is the method: CD8^+ T cells from Pmel-1 mice were stimulated in vitro with 1 μM hgp10025-33 peptide for 5 days and secondary restimulation was done with plate-bound anti-CD3 (1 μg/ml; BD Biosciences, Franklin Lakes, NJ) and soluble anti-CD28 (1 μg/ml; BD Biosciences) and expanded in culture medium containing 60 IU of IL-2. The conditions control/potassium hydroxycitrate (FIG. 7) were activated in the above conditions for a total of 10 days. For measuring T cell effector function, these cells were stimulated on day 10 in the indicated conditions for 5 h with anti-CD3 and -CD28 without IL-2 in the presence of brefeldin A and monesin (BD Biosciences).
(§1) For all flow cytometry experiments, T cells were stained with a fixable live/dead stain (Invitrogen, Waltham, MA) in phosphate buffered saline (PBS) followed by surface antibody staining in FACS buffer (PBS with 0.5% bovine serum albumin (BSA) and 0.1% sodium azide). For intracellular cytokine staining, cells were first stained for surface markers and later stained for intracellular molecules following fixation and permeabilization (BD CYTOFIX/CYTOPERM fixation/permeabilization solution kit). For phospho-staining, BD PHOSFLOW reagents (BD Biosciences) were used and protocols were carried out according to the manufacturer's protocols. After washing, cells were stained with phospho-antibodies purchased from Cell Signaling (Danvers, MA). […] All experiments were conducted on a BD FORTESSA flow cytometer (Becton Dickinson, Downers Grove, IL) and analyzed with FLOWJO software (TreeStar, Ashland, OR).
(§2) CD8+ Pmel-1 T cells were activated with mhgp100 peptide for 5 days in the presence of 5 mM potassium hydroxycitrate followed by secondary stimulation with anti-CD3 (1 μg/ml) and anti-CD28 (1 μg/ml) (FIG. 7A). Cells were analyzed for surface markers or intracellular cytokines on day 10.
Representative flow cytometry analysis and quantification of CD62L vs CD44 positive cells and IFN-γ+ production in T cells cultured in control or 2-hydroxy citrate (potassium hydroxycitrate (5 mM)) are shown in Table B and FIGS. 7A and 7B. […]

Test [6] has as its system CD8+ Pmel-1 T cells. Kind of test: Annexin V/PI FACS of live, apoptotic and necrotic populations. The test is classed as cell-based, mouse. Here is the method: as §2
Representative FACS data defining the percentages of live (Annexin V−PI−), apoptotic (Annexin V+PI−) and necrotic populations (Annexin V+PI+) cultured in control or potassium hydroxycitrate are provided in Table C and FIG. 8.

In test [7] the test system is T cells. Kind of test: Acetate rescue: CD62L and IFN-γ by FACS. The test is classed as cell-based, mouse. To be noted: control 49.4.
Source text: as §1
T cells were treated with a combination of potassium hydroxycitrate and acetate, potassium hydroxycitrate alone, or negative control. Expression of CD62L was measured by fluorescence-activated cell sorting (FACS).
IFN-γ secretion was also measured by FACS (Table D) and quantified (FIG. 13) following treatment with control, potassium hydroxycitrate alone, or a combination of potassium hydroxycitrate and acetate.

Test [8] relates to T cells. Kind of test: Autophagy by immunoblot, LC3II/LC3I ratio. To be noted: acetate 5 mM where present, control 0.7. It is filed as cell-based, mouse. Here is the method: Ablation of autophagy was measured by immunoblot following treatment with a combination of potassium hydroxycitrate and 5 mM acetate, potassium hydroxycitrate only, or control (neither potassium hydroxycitrate nor acetate). Beta-actin was used as a control. Quantification of the autophagy flux was represented by ratio of LC3II/LC3I intensities.

Test [9] concerns transferred Ly5.1+ CD8+ T cells in mice bearing B16-mhgp100 tumors. The test can be described thus: Persistence of transferred T cells in spleen of tumor-bearing mice. The test is classed as in vivo.
The subject of test [10] is B16-mhgp100 tumors. Kind of test: Anti-tumor efficacy after adoptive transfer of treated Pmel-1 T cells. It is filed as in vivo, mice. Particulars: FIGS. 5, 6, 11.
The subject of test [11] is adoptively transferred CD8+Ly5.1+ T cells. The test is classed as in vivo, mice. To be noted: challenge with vaccinia rhgp100 1×10^7 PFU; negative control 7.8.
The next test deals with human TIL. Kind of test: TNF and IL-2 expression of human TIL by FACS. It is filed as cell-based. To be noted: 2.5 or 5 mM, vs vehicle. Here is the method: Human TIL were cultured without stimulation, in vehicle, or in potassium hydroxycitrate (2.5 or 5 mM). The cells were analyzed for the expression of tumor necrosis factor (TNF) and IL-2.
The next test relates to Human CD8+ TILs. The test can be described thus: CD62L expression of human CD8+ TILs during rapid expansion, FACS. It is filed as cell-based. To be noted: 5 mM. Here is the method:
Human CD8^+ TILs from various histologies were cultured in the presence or absence (control) of potassium hydroxycitrate (5 mM). In brief, TILs from fresh tumor digests were subjected with 30 ng ml^−1 OKT3 to a rapid expansion protocol (REP) using irradiated peripheral blood mononuclear cells (PBMC) grown cultured in 3,000 IU ml-1 IL-2 in RPMI 1640 and AIM-V, supplemented with 5% in-house human serum 100 μg ml^−1 streptomycin and 100 μg ml^−1 penicillin, 2 mM 1-glutamine, 10 μg ml^−1 gentamicin, for approximately 14 days.
Expression of CD62L was measured by FACS. […] Specifically, FIG. 20 presents representative FACS data for human TIL showing relatively higher expression of the lymphoid homing marker CD62L during TIL expansion for potassium hydroxycitrate cultured TILs as compared to control TILs ([…], 14% increase). FIG. 21 is a graph showing the percentages of cells (% of maximum) expressing CD62L following treatment with negative control or potassium hydroxycitrate. FIGS. 22A and 22B show the quantification of the data shown in FIG. 21 for CD45RO^+ CD62L^+ for two patient samples (Patient A and Patient B).

Consider `O=C(O)CC(O)(CC(=O)O)C(=O)O` [Citrate, reference compound], for which, in the test with B16-mhgp100 tumors [1], the “antitumor efficacy in a B16 melanoma model” value is “but not citrate improves antitumor efficacy”.

With `O=C([O-])CC(O)(C(=O)[O-])C(O)C(=O)[O-].[K+].[K+].[K+]` (stereo not shown) [Potassium hydroxycitrate, potassium hydroxycitrate], in the test with T cells [2] (T cells treated with potassium hydroxycitrate (ACLY inhibitor) vs negative control, FIG. 2A), the cytoplasmic citrate entry is listed as “citrate accumulation”. In addition, the “cytoplasmic AcCoA” value in the test on T cells [2] (T cells treated with potassium hydroxycitrate vs negative control, FIG. 2B) was “depletion of cytoplasmic AcCoA”. The “H3K9Ac deposition at the IFN-γ locus (ChIP-PCR quantification)” value in [3] is “reduced H3K9Ac deposition”. In addition, the “percentage of mCherry positive cells which are GFP−” value with T cells [4] (flow cytometry, loss of GFP = autophagic flux, negative control 12.1) is 33.2%. Also, in the test on T cells [4] (flow cytometry, negative control 83.0), the “percentage of mCherry positive cells which are GFP+” value was determined as 60.8%. Also, in the test on T cells [4] (vs negative control), the autophagy result was “Enhanced autophagy”. For the same compound, the “percentage of cells CD44+ CD62L+” value in the test with CD8+ Pmel-1 T cells [5] (day 10, negative control 3.5) is on record as 30.7%. Besides, the “percentage of cells IFN-γ+” value in the test with CD8+ Pmel-1 T cells [5] (day 10, negative control 59.3) is reported as 14.2%. For the same compound, the effector differentiation entry with CD8+ Pmel-1 T cells [5] (vs control) is given as “blockade of effector differentiation”. Further, in the test with CD8+ Pmel-1 T cells [6] (negative control 9.74), the “percentage of cells PI+ Annexin+ (necrotic)” value was found to be 2.4%. For the same compound, in the test on CD8+ Pmel-1 T cells [6] (negative control 18.1), the “percentage of cells PI− Annexin+ (apoptotic)” value was determined as 1.6%. Moreover, the “percentage of cells PI− Annexin− (live)” value with CD8+ Pmel-1 T cells [6] (negative control 71.0) worked out at 95.2%. Moreover, the cellular apoptosis entry in the test on CD8+ Pmel-1 T cells [6] (vs control) is listed as “reduced cellular apoptosis”. The “percentage of IFN-γ positive cells” value in the test on T cells [7] stood at 18.2%. Further, the “autophagy flux, ratio of LC3II/LC3I intensities” value in the test on T cells [8] came out at 2.1. For the same compound, the “in vivo persistence following adoptive transfer” value in [9] (T cells cultured in potassium hydroxycitrate vs control) was “enhanced in vivo persistence”. Moreover, in test [9] (day 7 after transfer, tumor-bearing mice, negative control 9.2), the “percentage Ly5.1+ CD8+ T cells in spleen” value is 46.3%. Further, the antitumor efficacy entry with B16-mhgp100 tumors [10] is “improved antitumor efficacy”. In addition, in test [11], the “% Ly5.1+ CD8+ T cells, recall response” value came to 25.9%. In addition, the “antitumor efficacy in a B16 melanoma model” value in the test on B16-mhgp100 tumors [1] was “improves antitumor efficacy”. Moreover, the “poly-functionality (TNF and IL-2 expression)” value in the test on human TIL is given as “improves poly-functionality of human TIL”. Also, in the test with Human CD8+ TILs (about 14 days REP, control 56.2, FIG. 20), the “CD62L expression, representative FACS data” value worked out at 66.6. For the same compound, the “expression of the lymphoid homing marker CD62L during TIL expansion” value with Human CD8+ TILs (vs control) is recorded as “maintained relatively higher expression”. In addition, the “increase of CD62L expression vs control TILs” value with Human CD8+ TILs (FIG. 20) came to 14%.

Values taken from US12415845B2 (priority 2018, dated 2025).
